# Data reported in paper PMC4822253, “Inhibition of BMP and of TGFβ receptors downregulates expression of XIAP and TAK1 leading to lung cancer cell death” (Molecular Cancer, 2016).
# Experiments:
# H1299 Id1-luc cells = experiment: Id1-promoter luciferase reporter assay; assay type: cell-based
# Experimental: H1299 cells were stably transfected with the Id1-promoter luciferase reporter. Treated cells were lysed with 1X luciferase lysis buffer (Promega). Samples were added to luciferase assay substrate (Promega) and luminsescence measured by the TD-20/20 Luminometer (Turner Designs/Turner BioSystems, Sunnyvale, CA). Control samples included luciferase assay substrate alone and luciferase assay substrate plus 1X reporter lysis buffer.
# BMPRII = molecular target: T1, BMPRII (Homo sapiens, UniProt Q13873); design: method as in PMID 23639540; settings: reported literature (Table 1); cited from earlier work
# T1 construct: purchased Reaction Biology Corporation (Malvern, PA)
# T1 sequence (Q13873 27-1038): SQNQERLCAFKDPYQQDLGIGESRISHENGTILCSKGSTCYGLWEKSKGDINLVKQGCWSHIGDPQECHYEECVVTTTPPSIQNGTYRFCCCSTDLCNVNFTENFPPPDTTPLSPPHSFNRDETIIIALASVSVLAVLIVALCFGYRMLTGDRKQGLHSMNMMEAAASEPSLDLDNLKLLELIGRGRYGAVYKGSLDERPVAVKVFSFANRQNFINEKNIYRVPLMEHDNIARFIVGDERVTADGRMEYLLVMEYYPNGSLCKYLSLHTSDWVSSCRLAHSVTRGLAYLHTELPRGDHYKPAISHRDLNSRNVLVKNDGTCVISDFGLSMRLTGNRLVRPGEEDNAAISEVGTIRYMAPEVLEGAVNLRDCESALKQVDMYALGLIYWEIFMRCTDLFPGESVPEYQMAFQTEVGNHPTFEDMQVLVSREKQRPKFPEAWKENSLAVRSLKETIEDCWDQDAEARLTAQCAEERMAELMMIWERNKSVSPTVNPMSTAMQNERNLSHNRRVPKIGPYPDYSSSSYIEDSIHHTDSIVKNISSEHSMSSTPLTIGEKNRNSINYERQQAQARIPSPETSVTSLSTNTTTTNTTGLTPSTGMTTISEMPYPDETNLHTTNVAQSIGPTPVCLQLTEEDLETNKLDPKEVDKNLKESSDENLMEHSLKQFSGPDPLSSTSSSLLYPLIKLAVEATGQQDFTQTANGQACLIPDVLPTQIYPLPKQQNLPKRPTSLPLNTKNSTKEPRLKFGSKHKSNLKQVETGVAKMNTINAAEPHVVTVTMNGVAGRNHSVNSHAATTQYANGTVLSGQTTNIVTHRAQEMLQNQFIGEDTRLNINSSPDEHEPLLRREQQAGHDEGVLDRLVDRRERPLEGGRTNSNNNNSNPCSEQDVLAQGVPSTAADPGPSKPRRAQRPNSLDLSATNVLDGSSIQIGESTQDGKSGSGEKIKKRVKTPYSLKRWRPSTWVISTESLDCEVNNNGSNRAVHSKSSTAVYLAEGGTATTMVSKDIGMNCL
# Alk3/BMPR1A = Alk3/BMPR1A (Homo sapiens, UniProt P36894); design: purchased Reaction Biology Corporation (Malvern, PA); method as in PMID 23639540; settings: reported literature; cited from earlier work
# H1299 cells [1] = experiment: Western blot analysis of cells in culture; assay type: cell-based
# Experimental: Total cellular protein was prepared using RIPA buffer containing a protease inhibitor cocktail and protein concentration was measured using the BCA assay as described. In brief, protein was analyzed by SDS-PAGE, transferred to nitrocellulose (Schleicher and Schuell, Keene, NH). After blocking, the blots were incubated overnight at 4 °C with the appropriate primary antibody in Tris-buffered saline with 1 % Tween (TBST) and 5 % BSA. Secondary antibodies were applied for 1 h at room temperature. Specific proteins were detected using the enhanced chemiluminescence system (Amersham, Arlington Heights, IL). The primary antibodies that were used were rabbit monoclonal anti-pSmad 1/5, rabbit monoclonal anti-pSmad2, rabbit monoclonal anti-Smad2, rabbit monoclonal anti-pTAK1, rabbit monoclonal XIAP, rabbit anti-monoclonal p-p65, rabbit monoclonal anti-activated caspase-3, rabbit polyclonal anti-BMPRII, and rabbit monoclonal anti-EGR-1 (Cell signaling Technology, Danvers MA), Rabbit monoclonal anti-TAK1 (Invitrogen, Grand Island NY), rabbit anti-actin, an affinity isolated antigen specific antibody (Sigma, Saint Louis, MO), rabbit monoclonal anti-Id1 and rabbit monoclonal anti-Id3 (Calbioreagents, San Mateo, CA), rabbit polyclonal anti-GAPDH (Sigma, St. Louis, MO) and rabbit polyclonal pMEK-1/2 (Cell Signaling, Danvers MA).
# Alk5/TGFbetaR1 = molecular target: T2, Alk5/TGFbetaR1 (Homo sapiens, UniProt P36897); settings: cited from earlier work
# T2 construct: purchased Reaction Biology Corporation (Malvern, PA)
# T2 sequence (P36897 34-503): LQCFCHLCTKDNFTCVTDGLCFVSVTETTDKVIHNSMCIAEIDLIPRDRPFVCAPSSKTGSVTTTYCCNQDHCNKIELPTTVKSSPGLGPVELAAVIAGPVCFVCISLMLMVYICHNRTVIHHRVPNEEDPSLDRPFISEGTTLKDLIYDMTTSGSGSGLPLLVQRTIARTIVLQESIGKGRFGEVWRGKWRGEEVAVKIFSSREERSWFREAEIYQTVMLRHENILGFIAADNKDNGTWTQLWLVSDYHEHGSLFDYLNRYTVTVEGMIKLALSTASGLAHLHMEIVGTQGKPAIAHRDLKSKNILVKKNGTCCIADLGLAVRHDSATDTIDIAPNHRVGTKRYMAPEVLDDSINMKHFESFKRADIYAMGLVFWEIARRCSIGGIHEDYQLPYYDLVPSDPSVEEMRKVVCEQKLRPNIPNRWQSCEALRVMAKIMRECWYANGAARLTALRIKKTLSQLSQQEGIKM
# Alk2/ACVRR1 = molecular target: T3, Alk2/ACVRR1 (Homo sapiens, UniProt Q04771); design: purchased Reaction Biology Corporation (Malvern, PA); settings: reported literature; read-out: IC50 Alk2/ACVRR1; cited from earlier work
# T3 sequence (Q04771 21-509): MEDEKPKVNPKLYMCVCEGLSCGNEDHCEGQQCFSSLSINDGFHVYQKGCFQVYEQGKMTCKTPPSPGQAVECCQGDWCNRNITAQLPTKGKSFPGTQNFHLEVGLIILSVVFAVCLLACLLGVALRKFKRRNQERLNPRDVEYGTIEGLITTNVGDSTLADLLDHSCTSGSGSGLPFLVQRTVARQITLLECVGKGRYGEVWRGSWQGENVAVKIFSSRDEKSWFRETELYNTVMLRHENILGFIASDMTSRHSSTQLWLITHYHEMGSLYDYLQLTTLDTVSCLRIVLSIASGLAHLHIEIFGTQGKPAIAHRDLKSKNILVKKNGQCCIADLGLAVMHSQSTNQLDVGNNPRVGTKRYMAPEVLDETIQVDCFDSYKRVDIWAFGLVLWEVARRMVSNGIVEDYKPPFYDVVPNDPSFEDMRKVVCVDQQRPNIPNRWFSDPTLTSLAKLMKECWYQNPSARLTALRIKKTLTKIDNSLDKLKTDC
# H1299 cells [2] = experiment: Cell death assay (ethidium bromide uptake); assay type: cell-based; settings: H1299 cells; after 3 days
# Experimental: Cells were plated in 6 well plates with 10^6 cells per well. Three days following treatment with inhibitor(s) and/or transfection the adherent and floating cells were harvested and incubated with 0.1 mg/ml of ethidium bromide. Cells that die by necrosis or apoptosis lose membrane integrity and take up ethidium bromide. Immediately after staining approximately 100 cells were counted and the percentage of cells that took up ethidium bromide was determined.
# H1299 cells [3] = experiment: Cell counts (live cells, trypan blue); assay type: cell-based; settings: compound alone, 7 days
# Experimental: (§1) Cells were plated into 6 well plates at 10^5 cells per well and treated with 1 μM DMSO or antagonist for 7 days. The cells were detached with trypsin, stained with trypan blue, and the number of live cells counted using a hemocytometer.
# A549 cells = experiment: Cell counts (live cells, trypan blue); assay type: cell-based; settings: compound alone, 7 days
# Experimental: as §1
# Sequence of Alk3/BMPR1A (P36894 24-532): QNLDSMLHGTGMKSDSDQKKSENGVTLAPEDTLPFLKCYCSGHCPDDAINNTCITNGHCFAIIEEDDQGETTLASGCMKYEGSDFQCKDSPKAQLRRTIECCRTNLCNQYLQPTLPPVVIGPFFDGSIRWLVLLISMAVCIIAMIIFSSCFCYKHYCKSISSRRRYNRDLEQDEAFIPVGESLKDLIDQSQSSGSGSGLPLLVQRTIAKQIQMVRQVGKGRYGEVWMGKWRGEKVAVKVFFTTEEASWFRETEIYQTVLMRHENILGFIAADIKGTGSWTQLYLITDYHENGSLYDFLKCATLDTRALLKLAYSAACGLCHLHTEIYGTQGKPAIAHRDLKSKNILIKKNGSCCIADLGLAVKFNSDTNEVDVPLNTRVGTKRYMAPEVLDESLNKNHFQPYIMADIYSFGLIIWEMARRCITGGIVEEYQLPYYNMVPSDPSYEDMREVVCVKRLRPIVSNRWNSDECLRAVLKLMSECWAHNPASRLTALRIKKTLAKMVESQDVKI
compound,measurement,setting,value
O=C(NOC[C@H](O)CO)c1ccc(F)c(F)c1Nc1ccc(I)cc1F [PD0325901],promoter activity of Id1 (Id-1 luciferase reporter),H1299 Id1-luc cells; 48 h,did not regulate
CC(C)Oc1ccc(-c2cnc3c(-c4ccnc5ccccc45)cnn3c2)cc1 [DMH1],inhibition of BMPRII,BMPRII,does not occur
same,IC50,Alk3/BMPR1A,5 nM
same,expression of Smad2,"H1299 cells [1]; H1299 cells, 3 days",did not show significant regulation
same,expression of XIAP,"H1299 cells [1]; H1299 cells, after 3 days (cell line not stated for DMH1 and LDN)",did not downregulate
same,activation of caspase-3,"H1299 cells [1]; H1299 cells, after 3 days, alone or in combination with SB",did not activate
same,activation of Smad2 and TAK1,"H1299 cells [1]; in vitro 48 h, cell line not stated in legend",activation
same,activity for TGFβ receptors,Alk5/TGFbetaR1,no activity
same,IC50,Alk2/ACVRR1,108 nM
same,cell death,H1299 cells [2],little cell death
Cc1cccc(-c2[nH]c(C(C)(C)C)nc2-c2ccc3c(c2)OCO3)n1 [SB],expression of Id1,"H1299 cells [1]; H1299 cells, compound alone, increasing doses",dose-related increase
same,growth (cell counts),H1299 cells [3],little effect
same,growth (cell counts),A549 cells,growth suppression
same,Id1 promoter activity,H1299 Id1-luc cells; compound alone,increase
"COc1cc(O)c2c(c1)/C=C/C[C@H](O)[C@H](O)C(=O)/C=C\C[C@H](C)OC2=O [5Z, 5Z-7-oxozeaenol]","expression of pSmad 1/5, Id1, and pTAK1","H1299 cells [1]; H1299 cells, after 24 h",dose-related decrease
same,"expression of Id1, pSmad 1/5, and pTAK1","H1299 cells [1]; H1299 cells, after 48 h",increasing
same,Id1 promoter activity,"H1299 Id1-luc cells; 2 μM, after 24 h",suppressed
same,Id1 promoter activity,H1299 Id1-luc cells; after 48 h,no longer suppressed
